Series [1] concerns the target T1, IRAK4 (Homo sapiens, UniProt Q9NWZ3).
T1 construct: expressed in transfected cells; host or cells: K562 IRAK4-HiBiT cells
T1 sequence (Q9NWZ3 1-460): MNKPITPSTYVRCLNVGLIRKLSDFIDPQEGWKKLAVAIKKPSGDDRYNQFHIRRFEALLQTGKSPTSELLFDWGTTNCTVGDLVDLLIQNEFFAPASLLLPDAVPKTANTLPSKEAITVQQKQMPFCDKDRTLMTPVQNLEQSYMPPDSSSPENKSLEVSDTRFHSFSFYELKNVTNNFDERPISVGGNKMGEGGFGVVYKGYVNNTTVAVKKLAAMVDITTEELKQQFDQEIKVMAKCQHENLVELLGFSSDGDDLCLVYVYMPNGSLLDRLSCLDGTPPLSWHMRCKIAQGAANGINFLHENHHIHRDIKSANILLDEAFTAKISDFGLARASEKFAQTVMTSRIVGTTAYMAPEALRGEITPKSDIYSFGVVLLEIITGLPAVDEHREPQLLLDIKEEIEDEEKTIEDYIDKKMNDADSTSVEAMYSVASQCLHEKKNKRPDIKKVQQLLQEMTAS
Description: Target protein degradation in K562 IRAK4-HiBiT cells (Nano-Glo HiBiT). To be noted: 16 to 18 hours; for Dmax: read-out: Maximum degradation rate. Type of series: cell-based. On the procedure:
Experimental objective: The experiment aims to evaluate the degradation effect of the test compounds on the target protein IRAK4 in K562 IRAK4-HiBiT cells.
• Cells: K562 IRAK4-HiBiT cells • Culture medium: RPMI 1640+10% fetal bovine serum+2 mM glutamine+1 mM sodium pyruvate+penicillin/streptomycin. • Positive control: 1000 nM; negative control: 0.1% DMSO.
• (1). The powder of the compound to be tested was dissolved in DMSO to a storage concentration of 10 mM. A total of 9 μL of the 10 mM of the compound to be tested was manually pipetted into the 1st and 13th columns of the LDV plate using a pipettor; • (2). A volume of 6 μL of DMSO was added to columns 2-12 and 14-24 using a Multidrop Combi; • (3). A 3-fold dilution of the test compounds (3 μL+6 μL) was performed using Bravo, for columns 1-11 and 13-23; • (4). According to the plate layout, 25 nL of compound solution (columns 1-24 of the LDV plate) was transferred to the experimental plate using Echo; • (5) 25 nL of the 1 mM positive control solution was transferred to the assay plate as a 100% degradation control (i.e. LC, HPE), and 25 nL of DMSO was transferred to the assay plate as a 0% control (i.e. HC, ZPE).
• (1) The culture medium was discarded, and the cells were washed once with DPBS, digested with trypsin, counted, and prepared into a cell suspension of […]. • (2) Using the MultiDrop Combi at a medium speed, 25 μL/well of the cell suspension was added to the experimental plate containing the test compounds; • (3) The experimental plate containing cells was returned to the incubator and cultured for 16 to 18 hours at 37° C. and 5% CO2.
• (1). Using the MultiDrop Combi at a high speed, 25 μL/well of the assay reagent (NanoGlo lytic solution+substrate+LgBit protein) was added to the assay plate, followed by shaking for 10 minutes; • (2) The plate was centrifuged at 2000 rpm for 1 minute to remove any bubbles; • (3) Readings were obtained by using an Envision, US Luminescence reader.
To calculate the degradation rate (DR) of the test compounds, the following formula is used: IR (%)=(RLU vehicle control−RLU compound)/(RLU vehicle control−RLU positive control)×100%. The solvent control refers to the blank control. The degradation rates of compounds at different concentrations were calculated in Excel, and then XLFit software was used to plot inhibition curves and calculate relevant parameters, including minimum degradation rate, maximum degradation rate, and DC50.

The nature of series [2]: Pharmacokinetic evaluation in mice. To be noted: intragastric administration 10 mg/kg, experimental operation A, fasted overnight. Type of series: in vivo, C57BL/6N or CD-1 male mice. An excerpt:
In this study, C57BL/6N or CD-1 male mice were selected as test animals, and LC/MS/MS method was used to quantify plasma concentrations of the test compound intravenously injected or gavage to mice at different time points, so as to evaluate the pharmacokinetic profile of the compounds of the present disclosure in mice.
C57BL/6N mice (male, 20 to 30 g, 7 to 10 weeks old, Beijing VitalRiver) or CD-1 mice (male, 20 to 35 g, 7 to 10 weeks old, Beijing VitalRiver).
• The test compounds, either as clear or suspension solutions, were administered intravenously through the tail vein to C57BL/6N mice or CD-1 mice (either fasted overnight or fed) (vehicle: 10% DMSO/10% solutol/80% H2O or 5% DMSO/10% solutol/85% H2O), or intragastrically administered to C57BL/6N mice or CD-1 mice (either fasted overnight or fed). For intravenous injection, blood 50 μL was collected via the cheek vein puncture at 0 h (pre-administration), 0.083, 0.25, 0.5, 1, 2, 4, 6, 8, and 24 h after administration, and placed in an anticoagulant tube added with heparin sodium. The mixture was thoroughly vortexed and mixed, and centrifuged at 6000 g for 3 minutes at 2-8° C. For oral administration, blood was collected via the cheek vein puncture at 0 h (pre-administration), 0.083, 0.25, 0.5, 1, 2, 4, 6, 8, and 24 h after administration, and placed in an anticoagulant tube added with heparin sodium. The mixture was thoroughly vortexed and mixed, and centrifuged at 6000 g for 3 minutes at 2-8° C. Plasma concentrations were determined by LC-MS/MS method, and relevant pharmacokinetic parameters were calculated using Phoenix WinNonlin8.2.0 pharmacokinetic software with non-compartmental model linear-log trapezoidal method.
• The test compounds, as clear solutions, were administered intravenously through the tail vein to CD-1 mice (fasted overnight) (vehicle: 10% DMSO/10% solutol/80% H2O or 5% DMSO/10% solutol/85% H2O), or intragastrically administered to CD-1 mice (fasted overnight). For intravenous injection, blood was collected via the saphenous vein puncture at 0 h (pre-administration), 0.083, 0.25, 0.5, 1, 2, 4, 8, and 24 h after administration, and placed in a EDTA-K2 anticoagulant tube. The mixture was thoroughly vortexed and mixed, and centrifuged at 3200 g for 10 minutes at 4° C. to obtain plasma. For oral administration, blood was collected via the saphenous vein puncture at 0 h (pre-administration), 0.083, 0.25, 0.5, 1, 2, 4, 8, and 24 h after administration, and placed in a EDTA-K2 anticoagulant tube. The mixture was thoroughly vortexed and mixed, and centrifuged at 3200 g for 10 minutes at 4° C. to obtain plasma. Plasma concentrations were determined by LC-MS/MS method, and relevant pharmacokinetic parameters were calculated using Phoenix WinNonlin 6.3 pharmacokinetic software with non-compartmental model linear-log trapezoidal method.

The target in series [3] is T2, IKZF1 (Homo sapiens, UniProt Q13422+Q96SW2).
T2 construct: host or cells: MM.1S cells
T2 sequence (Q13422 whole entry): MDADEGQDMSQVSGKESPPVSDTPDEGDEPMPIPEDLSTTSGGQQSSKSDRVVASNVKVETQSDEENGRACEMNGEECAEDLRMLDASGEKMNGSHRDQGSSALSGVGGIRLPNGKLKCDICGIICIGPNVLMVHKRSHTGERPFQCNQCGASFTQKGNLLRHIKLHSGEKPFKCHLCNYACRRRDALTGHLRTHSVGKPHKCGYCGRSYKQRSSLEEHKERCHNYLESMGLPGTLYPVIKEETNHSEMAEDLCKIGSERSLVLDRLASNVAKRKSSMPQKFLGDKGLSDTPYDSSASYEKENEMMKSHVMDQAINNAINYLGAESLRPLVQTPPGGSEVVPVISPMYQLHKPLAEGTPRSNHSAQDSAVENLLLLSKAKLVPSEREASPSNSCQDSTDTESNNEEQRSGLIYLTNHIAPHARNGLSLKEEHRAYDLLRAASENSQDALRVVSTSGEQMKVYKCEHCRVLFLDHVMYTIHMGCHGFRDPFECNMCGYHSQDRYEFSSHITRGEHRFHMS
T2 sequence (Q96SW2 whole entry): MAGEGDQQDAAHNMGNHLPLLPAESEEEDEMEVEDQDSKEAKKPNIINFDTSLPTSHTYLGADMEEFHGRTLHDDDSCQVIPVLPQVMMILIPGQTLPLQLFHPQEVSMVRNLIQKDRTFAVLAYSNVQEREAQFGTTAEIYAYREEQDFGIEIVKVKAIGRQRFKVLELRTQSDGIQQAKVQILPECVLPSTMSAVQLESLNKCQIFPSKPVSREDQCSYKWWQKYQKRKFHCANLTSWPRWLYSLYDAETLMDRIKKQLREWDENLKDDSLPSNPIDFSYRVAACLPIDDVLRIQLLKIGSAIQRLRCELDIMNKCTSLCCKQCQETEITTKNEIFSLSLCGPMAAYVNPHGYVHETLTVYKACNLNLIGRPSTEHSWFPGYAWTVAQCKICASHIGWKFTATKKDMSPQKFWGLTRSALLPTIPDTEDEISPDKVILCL
T2 sequence (Q16531 whole entry partner): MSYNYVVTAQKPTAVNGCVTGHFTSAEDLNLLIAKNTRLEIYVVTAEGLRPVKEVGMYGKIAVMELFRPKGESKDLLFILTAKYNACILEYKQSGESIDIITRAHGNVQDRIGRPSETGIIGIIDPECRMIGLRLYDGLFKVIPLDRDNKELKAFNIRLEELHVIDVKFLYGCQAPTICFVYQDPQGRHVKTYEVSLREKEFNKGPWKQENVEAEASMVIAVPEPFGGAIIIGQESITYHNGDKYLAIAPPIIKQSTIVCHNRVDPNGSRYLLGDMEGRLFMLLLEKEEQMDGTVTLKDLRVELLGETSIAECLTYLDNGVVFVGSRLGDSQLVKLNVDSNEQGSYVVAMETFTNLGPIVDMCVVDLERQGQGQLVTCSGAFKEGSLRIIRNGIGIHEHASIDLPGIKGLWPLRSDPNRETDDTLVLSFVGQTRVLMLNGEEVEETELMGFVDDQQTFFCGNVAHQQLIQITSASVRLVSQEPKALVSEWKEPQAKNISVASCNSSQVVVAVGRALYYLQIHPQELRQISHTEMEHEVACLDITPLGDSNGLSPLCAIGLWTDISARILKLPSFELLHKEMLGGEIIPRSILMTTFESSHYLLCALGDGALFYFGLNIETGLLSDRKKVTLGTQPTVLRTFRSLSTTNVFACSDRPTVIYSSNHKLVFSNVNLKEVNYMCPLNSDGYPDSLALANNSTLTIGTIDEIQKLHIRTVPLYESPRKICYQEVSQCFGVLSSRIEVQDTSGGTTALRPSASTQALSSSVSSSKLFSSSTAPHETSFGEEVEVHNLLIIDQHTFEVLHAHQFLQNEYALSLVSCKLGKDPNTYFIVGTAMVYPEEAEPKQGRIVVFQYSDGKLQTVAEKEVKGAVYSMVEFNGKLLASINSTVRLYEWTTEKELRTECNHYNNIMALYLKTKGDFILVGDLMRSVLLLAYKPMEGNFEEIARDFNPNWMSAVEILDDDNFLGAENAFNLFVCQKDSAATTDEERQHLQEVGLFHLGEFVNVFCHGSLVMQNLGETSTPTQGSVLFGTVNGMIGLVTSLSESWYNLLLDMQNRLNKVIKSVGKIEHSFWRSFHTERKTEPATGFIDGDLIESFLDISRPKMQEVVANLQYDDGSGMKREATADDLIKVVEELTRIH
Description: In Cell Western of IKZF1 protein expression level in MM.1S cells. The class given is cell-based. Conditions: IKZF1, MM.1S cells, 24 hours; for Dmax: MM1.S, read-out: Maximum degradation rate Dmax. As for the experimental part:
Experimental objective: The experiment aims to assess the degradation effect of the test compounds on IKZF1 and 1KZF3 proteins in MM.1S cells by evaluating the impact of the test compounds on the expression levels of IKZF1 and IZKZF3 proteins in MM.1S cells.
• Cell lines: MMN.1 S cell (sourced from ATCC; Cat. No CRL-2974) • Negative control: 0.100 DMSO.
• 1) Log phase MM.1 S cells were plated in a 96-well plate at 1.2×10^5 cells per well and cultured overnight; • 2) The next day, compounds were added with a starting concentration of 300 nM, diluted threefold across three replicate wells for 10 concentration gradients (including DMSO), and the cells were incubated for 24 hours in an incubator; • 3) The cells were centrifuged, and the supernatant was carefully removed. 150 μL of 4% paraformaldehyde fixative was added along the wall of the wells, avoiding contact with the bottom cells, and the cells were incubated at room temperature for 20 minutes; • 4) Lysis buffer was prepared by mixing 0.5 mL of 10% Triton X-100 with 49.5 mL of PBS until homogenous; • 5) 200 μL of lysis buffer was added along the well walls, again avoiding the bottom cells, and incubated on a shaker at room temperature for 5 minutes; • 6) The wells were washed four times; • 7) 150 μL of Licor […] Blocking Buffer was added along the well walls, avoiding the bottom cells, and the cells were incubated on a shaker at room temperature for 1.5 hours; • 8) Ikaros (D6N9Y) Rabbit mAb, Aiolos (D1C1E) Rabbit mAb and GAPDH mouse mAb (proteintech, 60004-1-Ig) were diluted at a 1:100 ratio using antibody dilution buffer; • 9) 50 μL of mixed antibody was added to each well with three replicate wells, and the cells were incubated overnight on a shaker at 4° C.; • 10) PBST (PBS with 0.1% Tween 20) was prepared; • 11) The primary antibodies were removed, and 200 μL of PBST was added along the well walls, avoiding the bottom cells, and the cells were incubated on a shaker at room temperature for 5 minutes; • 12) The wells were washed four times; • 13) Secondary antibody dilution buffer was prepared by adding Tween 20 to Licor […] Blocking Buffer to a final concentration of 0.2%; • 14) Fluorescent secondary antibodies were diluted in the dark at a 1:800 ratio. To 400 μL of secondary antibody dilution solution, 0.5 μL of each IRDye 800CW and IRDye 680CW (corresponding to the primary antibodies) was added. • 15) 50 μL of the diluted fluorescent secondary antibodies was added to each well and the cells were incubated on a shaker at room temperature in the dark for 60 minutes; • 16) The secondary antibodies were removed, and 200 μL of PBST was added along the well walls, avoiding the bottom cells, and the cells were incubated on a shaker at room temperature in the dark for 5 minutes; • 17) The wells were washed four times; immediately after washing, the Odyssey Gel Imaging System was used for detection at dual wavelengths of 700 nm and 800 nm.
Using GraphPad Prism 6 software, inhibition rate data was entered to fit the curve and calculate the DC50 value.

The structures appear in SMILES notation. Counter-ions that a name gives are not always drawn.

With `CC(C)(O)c1cc2nc([C@H]3CC[C@H](CN4CCC(C(F)(F)C(=O)Nc5cccc6c5ccc5onc(C7CCC(=O)NC7=O)c56)CC4)CC3)sc2cc1NC(=O)c1cccc(C(F)(F)F)n1` (stereo partly shown) [Formate of WX019], in series [1], the DC50 came out at 15.1 nM and the Dmax amounted to 92%. In series [2], the “Area under drug-time curve (0-inf)” value is 5.10 µM·h, the Peak concentration was 0.34 µM and the “Time to peak concentration” value amounted to 3.33 h.

As for `CC(C)(O)c1cc2nc([C@H]3CC[C@H](CN4CCC(C(F)(F)C(=O)Nc5cccc6c(C7CCC(=O)NC7=O)noc56)CC4)CC3)sc2cc1NC(=O)c1cccc(C(F)(F)F)n1` (stereo partly shown) [Formate of WX023], the figures for the DC50 in series [3] and in series [1] were 31.3 nM and 7.16 nM, respectively. Moreover, the values for the Dmax in series [3] and in series [1] were 57.2% and 114%, respectively.

Take `O=C1CCC(c2noc3c(NC(=O)C(F)(F)C4CCN(C[C@H]5CC[C@H](n6cc(NC(=O)c7coc(-c8ccnc(NCC9CC9)c8)n7)c(C(F)F)n6)CC5)CC4)cccc23)C(=O)N1` (stereo partly shown) [Formate of WX024]: the values for the DC50 in series [3] and in series [1] were 35.2 nM and 1.75 nM, respectively. The Dmax in series [3] amounted to 60.8%; in series [1] it was 117%.

As to `CC(C)(O)c1cc2nc([C@H]3CC[C@H](CN4CCN(CC(=O)Nc5cccc6c(C7CCC(=O)NC7=O)noc56)CC4)CC3)sc2cc1NC(=O)c1cccc(C(F)(F)F)n1` (stereo partly shown) [Formate of WX029], in series [3], the DC50 is 38.8 nM and the Dmax stood at 61.8%. Further, in series [1], the DC50 turned out to be 4.26 nM and the Dmax came out at 112%.

On to `O=C1CCC(c2coc3ccc(NC(=O)CN4CCN(C[C@H]5CC[C@H](n6cc(NC(=O)c7coc(-c8ccnc(NCC9CC9)c8)n7)c(C(F)F)n6)CC5)CC4)cc23)C(=O)N1` (stereo partly shown) [Hydrochloride of WX001], for which, in series [1], the DC50 stood at 76.4 nM and the Dmax is 54.3%.

Regarding `CN(CCCOCCCc1ccc2c(ccc3occ(C4CCC(=O)NC4=O)c32)c1)C[C@H]1CC[C@H](n2cc(NC(=O)c3coc(-c4ccnc(NCC5CC5)c4)n3)c(C(F)F)n2)CC1` (stereo partly shown) [Hydrochloride of WX008], in series [3], the DC50 is 4.66 nM and the Dmax was 81.4%. In series [1], the DC50 was 122 nM and the Dmax was 82.2%.

For `CN(CCCOCCCc1cccc2c1ccc1onc(C3CCC(=O)NC3=O)c12)CC1CCC(n2cc(NC(=O)c3coc(-c4ccnc(NCC5CC5)c4)n3)c(C(F)F)n2)CC1` (stereo not shown) [Hydrochloride of WX013], in series [1], the DC50 was determined as 48.7 nM and the Dmax is 101%.

On to `CN(CCCOCCCc1cccc2c1ccc1occ(C3CCC(=O)NC3=O)c12)CC1CCC(n2cc(NC(=O)c3coc(-c4ccnc(NCC5CC5)c4)n3)c(C(F)F)n2)CC1` (stereo not shown) [Trifluoroacetate of WX010], for which, in series [1], the DC50 came out at 50.2 nM and the Dmax came to 81.7%.

Consider `O=C1CCC(c2coc3ccc4cc(NC(=O)CN5CCN(C[C@H]6CC[C@H](n7cc(NC(=O)c8coc(-c9ccnc(NCC%10CC%10)c9)n8)c(C(F)F)n7)CC6)CC5)ccc4c23)C(=O)N1` (stereo partly shown) [WX007], for which, in series [1], the DC50 came out at 35.1 nM and the Dmax amounted to 97.4%.

Consider `CC(C)(O)c1cc2nc([C@H]3CC[C@H](CN4CC5(CC(CCNc6ccc7c(ccc8onc(C9CCC(=O)NC9=O)c87)c6)C5)C4)CC3)sc2cc1NC(=O)c1cccc(C(F)(F)F)n1` (stereo partly shown) [WX021], for which, in series [3], the DC50 is 2.66 nM and the Dmax came to 87.6%.

The record behind these values is patent US20240400547A1, “2,6-PIPERIDINEDIONE COMPOUND AND APPLICATION THEREOF” (MEDSHINE DISCOVERY INC., priority 2021, published 2024).
